Test results published in publication PMC3226707 (Journal of molecular biology, 2011).
Blank lines part the entries; values can stand above or below the molecule they belong to. Where no end group is shown, it is not given here.

Columns and labels:
[1] = molecular target: Act-EF34; settings: binding to Act-EF34; cited from earlier work
[2] = molecular target: Act-EF34 (C-terminal EF hand domain of α-actinin, actinin-2 residues 823–894) (Homo sapiens, UniProt P35609); assay: Isothermal titration calorimetry of palladin peptides with Act-EF34; assay type: binding; settings: for ΔH / ΔG / stoichiometry of binding: ITC; for ΔH / ΔG: 27 °C; for ΔH: one-binding site model; for ΔG: calculated using standard thermodynamic equations; for stoichiometry of binding: Act-EF34 titrations
[3] = molecular target: T1, palladin peptide WT (Homo sapiens); assay: ITC
T1 chain: Ac-HGQTPAAFLSALLPSQP

Molecule: FVPKVVISAAKAKEQE [Titin Zr3]
Kd [1]: > 4 µM

Molecule: AVATVVAAVDQARVRE [Titin Zr7]
Kd [1]: 0.1 to 0.25 µM

Molecule: AETAANRICKVLAVNQE [Actinin N-term]
Kd [1]: 0.568 ± 0.27 µM

Kd [2]: 15.7 ± 7.7 µM
ΔH [2]: -4.5 ± 0.2 kcal/mol
ΔG [2]: −6.6 kcal/mol*K
stoichiometry of binding [2]: ~1
Molecule: Ac-HGQTPAAFLSALLPSQP [Palladin (WT)]

Molecule: AVATVVAAVDMARVRE [Titin Zr1]
Kd [1]: 0.2 to 0.3 µM

Kd [2]: 19.5 ± 4 µM
ΔH [2]: -6.0 ± 0.2 kcal/mol
ΔG [2]: −6.5 kcal/mol*K
stoichiometry of binding [2]: ~1
Molecule: Ac-HGQTSAAFLSALLPSQP [Palladin (FX)]

Kd [3]: 15.7 µM
B1: Act-EF34 (alpha-actinin-2) 823-894 (protein)
chain: ADTDTAEQVIASFRILASDKPYILAEELRRELPPDQAQYCIKRMPAYSGPGSVPGALDYAAFSSALYGESDL
